Experimental data: the NIST ThermoML archive (doi:10.1021/acs.jced.6b00812)

Test: molar heat capacity at constant pressure; mn = molality of the nth substance listed, in mol/kg
Details: 100 kPa, Liquid, Small sample (50 mg) DSC

[Ca+2].[Cl-].[Cl-] [calcium chloride] + O
molar heat capacity at constant pressure [J/K/mol]
Details	m1 = 0.49	m1 = 1.17	m1 = 1.83	m1 = 2.51	m1 = 3.14	m1 = 3.8	m1 = 4.41	m1 = 5.1	m1 = 5.76	m1 = 6.39
168.15 K	–	–	–	–	–	56.81	58.42	–	–	–
178.15 K	–	–	–	–	–	57.77	59.16	–	–	–
188.15 K	–	–	–	–	–	58.49	59.66	–	–	–
198.15 K	–	–	–	–	–	59.45	60.4	–	–	–
208.15 K	–	–	–	–	–	60.41	61.15	–	–	–
218.15 K	–	–	–	–	–	61.37	61.9	–	–	–
228.15 K	–	–	–	–	62.08	62.09	62.64	–	–	–
238.15 K	–	–	–	63.47	63	63.05	63.39	64.08	–	–
248.15 K	–	68.18	65.68	64.35	63.92	63.77	64.13	64.6	–	–
258.15 K	72.68	68.77	66.51	65.23	64.61	64.48	64.63	65.37	66.09	–
268.15 K	72.49	69.37	67.14	65.89	65.3	65.2	65.38	65.89	66.62	–
278.15 K	72.68	69.77	67.77	66.55	65.76	65.68	65.87	66.66	67.42	67.93
288.15 K	72.68	69.97	68.19	66.99	66.22	66.16	66.37	67.18	67.96	68.2
298.15 K	72.87	70.37	68.61	67.43	66.91	66.64	67.12	67.7	68.49	68.76
